Measurements from ChEMBL document CHEMBL2203017, “STAT6 phosphorylation inhibitors block eotaxin-3 secretion in bronchial epithelial cells” (Bioorg Med Chem, 2012).
The source made the active and inactive calls. No cut-off for these calls is given here.

How the values were obtained:
[1] = biological target: T1, Signal transducer and activator of transcription 6 (Homo sapiens) (UniProt P42226); test: Inhibition of human N-terminal HA/myc tagged STAT6 expressed in 293-EBNA cells assessed as inhibition of IL-4-induced STAT6 inactive dimer-tyrosine phosphorylation after 1 hr by immunoblot analysis; assay type: cell-based
T1 sequence (whole entry): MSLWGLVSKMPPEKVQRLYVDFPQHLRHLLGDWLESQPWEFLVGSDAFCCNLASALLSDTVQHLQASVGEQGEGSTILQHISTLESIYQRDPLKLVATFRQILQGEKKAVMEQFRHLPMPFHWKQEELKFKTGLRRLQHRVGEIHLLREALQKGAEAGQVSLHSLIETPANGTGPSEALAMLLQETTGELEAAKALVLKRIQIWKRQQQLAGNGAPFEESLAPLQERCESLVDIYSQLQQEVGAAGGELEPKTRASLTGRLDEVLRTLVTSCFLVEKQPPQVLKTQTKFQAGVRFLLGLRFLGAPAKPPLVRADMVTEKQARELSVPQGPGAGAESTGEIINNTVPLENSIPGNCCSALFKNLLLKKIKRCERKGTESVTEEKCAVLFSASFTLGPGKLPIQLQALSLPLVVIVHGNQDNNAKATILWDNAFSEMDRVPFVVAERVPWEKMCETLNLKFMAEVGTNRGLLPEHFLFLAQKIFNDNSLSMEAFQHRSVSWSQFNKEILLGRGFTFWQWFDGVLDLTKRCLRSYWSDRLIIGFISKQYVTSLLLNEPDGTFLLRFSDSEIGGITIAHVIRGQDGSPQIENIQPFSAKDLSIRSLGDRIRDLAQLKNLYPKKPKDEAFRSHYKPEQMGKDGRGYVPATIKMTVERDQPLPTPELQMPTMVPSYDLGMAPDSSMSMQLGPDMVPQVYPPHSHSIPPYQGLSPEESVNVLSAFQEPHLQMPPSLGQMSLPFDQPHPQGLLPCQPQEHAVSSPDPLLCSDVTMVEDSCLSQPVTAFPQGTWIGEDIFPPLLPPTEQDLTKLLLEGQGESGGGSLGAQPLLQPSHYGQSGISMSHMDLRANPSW

[2] = biological target: T1, Signal transducer and activator of transcription 6 (Homo sapiens); test: Inhibition of human N-terminal HA/myc tagged STAT6 expressed in 293-EBNA cells assessed as effect on STAT6 dimer configuration after 1 hr by immunoblot analysis; assay type: cell-based
[3] = biological target: T2, Signal transducer and activator of transcription 6 (Homo sapiens, UniProt P42226); test: Binding affinity at human recombinant STAT6 by SPR analysis
T2 sequence (P42226 whole entry): T1 sequence (whole entry)

[4] = biological target: T1, Signal transducer and activator of transcription 6 (Homo sapiens); test: Inhibition of IL-4-induced human STAT6 tyrosine phosphorylation expressed in 293-EBNA cells at 10 uM incubated for 1 hr prior to IL-4-induction measured after 6 hrs by Western blot analysis; assay type: cell-based
[5] = biological target: T1, Signal transducer and activator of transcription 6 (Homo sapiens); test: Inhibition of interaction of human recombinant STAT6 with tyrosine phosphorylated IL-4Ralpha peptide at 20 uM after 1 hr by ELISA
[6] = biological target: T2, Signal transducer and activator of transcription 6; test: Inhibition of human STAT6 expressed in 293-EBNA cells assessed as inhibition of IL4-induced STAT6 transcriptional activation after 1 hr by Photinus pylaris luciferase reporter gene assay; assay type: cell-based
[7] = Cytotoxicity against human 293-EBNA cells assessed as effect on luciferase activity at 10 uM after 1 hr by Photinus reniformis luciferase reporter gene assay; assay type: cell-based
[8] = biological target: T1, Signal transducer and activator of transcription 6 (Homo sapiens); test: Inhibition of human STAT6 expressed in 293-EBNA cells assessed as inhibition of IL4-induced STAT6 transcriptional activation at 10 uM after 1 hr by Renilla reniformis luciferase reporter gene assay; assay type: cell-based
[9] = Cytotoxicity against human 293-EBNA cells assessed as effect on luciferase activity at 10 uM after 1 hr by Renilla reniformis luciferase reporter gene assay; assay type: cell-based
[10] = biological target: T1, Signal transducer and activator of transcription 6 (Homo sapiens); test: Inhibition of human STAT6 expressed in 293-EBNA cells assessed as inhibition of IL4-induced STAT6 transcriptional activation at 10 uM after 1 hr by Photinus pylaris luciferase reporter gene assay; assay type: cell-based
[11] = biological target: Tyrosine-protein kinase JAK2 (Homo sapiens) (UniProt O60674); test: Inhibition of JAK2 up to 10 uM after 30 mins by colorimetric ELISA
Sequence of Tyrosine-protein kinase JAK2 (Homo sapiens) (O60674 whole entry): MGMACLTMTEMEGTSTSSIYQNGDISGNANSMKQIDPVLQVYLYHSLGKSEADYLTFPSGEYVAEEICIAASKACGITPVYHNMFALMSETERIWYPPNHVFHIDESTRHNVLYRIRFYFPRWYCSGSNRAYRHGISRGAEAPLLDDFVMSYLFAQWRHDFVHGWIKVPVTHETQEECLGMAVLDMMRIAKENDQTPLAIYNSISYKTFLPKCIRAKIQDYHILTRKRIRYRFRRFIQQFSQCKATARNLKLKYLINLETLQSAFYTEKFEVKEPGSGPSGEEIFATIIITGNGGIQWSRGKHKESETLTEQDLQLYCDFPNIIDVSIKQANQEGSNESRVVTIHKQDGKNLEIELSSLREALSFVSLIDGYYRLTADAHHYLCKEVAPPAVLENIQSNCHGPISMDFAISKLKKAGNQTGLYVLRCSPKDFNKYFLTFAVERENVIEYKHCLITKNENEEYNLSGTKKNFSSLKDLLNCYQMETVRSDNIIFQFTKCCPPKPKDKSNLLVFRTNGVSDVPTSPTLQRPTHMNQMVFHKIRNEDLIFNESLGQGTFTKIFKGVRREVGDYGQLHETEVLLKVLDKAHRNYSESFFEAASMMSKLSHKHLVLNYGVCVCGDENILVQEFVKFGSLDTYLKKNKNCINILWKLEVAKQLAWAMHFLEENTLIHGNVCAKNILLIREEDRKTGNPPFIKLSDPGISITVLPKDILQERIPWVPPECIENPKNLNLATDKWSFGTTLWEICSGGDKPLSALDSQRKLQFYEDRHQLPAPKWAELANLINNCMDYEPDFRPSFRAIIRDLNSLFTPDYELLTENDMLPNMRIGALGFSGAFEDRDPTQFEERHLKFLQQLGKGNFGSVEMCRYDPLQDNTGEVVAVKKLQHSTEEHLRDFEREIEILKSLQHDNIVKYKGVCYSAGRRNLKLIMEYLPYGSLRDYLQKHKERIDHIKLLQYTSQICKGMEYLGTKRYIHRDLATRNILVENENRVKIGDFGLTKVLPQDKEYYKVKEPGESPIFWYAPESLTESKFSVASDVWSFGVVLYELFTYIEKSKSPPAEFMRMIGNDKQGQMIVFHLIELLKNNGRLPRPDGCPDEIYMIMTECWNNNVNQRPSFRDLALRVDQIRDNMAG

[12] = biological target: Signal transducer and activator of transcription 6 (Homo sapiens) (UniProt P42226); test: Inhibition of human STAT6 expressed in BEAS2B cells assessed as IL4-induced eotaxin-3 secretion after 24 hrs by ELISA
[13] = biological target: Signal transducer and activator of transcription 6 (Homo sapiens) (UniProt P42226); test: Inhibition of human STAT6 expressed in BEAS2B cells assessed as inhibition of IL4-induced STAT6 transcriptional activation
[14] = biological target: Signal transducer and activator of transcription 6 (Homo sapiens) (UniProt P42226); test: Inhibition of human STAT6 expressed in BEAS2B cells assessed as […]-induced eotaxin-3 secretion at 10 uM after 24 hrs by ELISA
[15] = biological target: Signal transducer and activator of transcription 6 (Homo sapiens) (UniProt P42226); test: Inhibition of human STAT6 expressed in BEAS2B cells assessed as IL4-induced eotaxin-3 secretion at 10 uM after 24 hrs by ELISA
[16] = biological target: Signal transducer and activator of transcription 6 (Homo sapiens) (UniProt P42226); test: Inhibition of human STAT6 expressed in BEAS2B cells assessed as IL4/TNFalpha-induced eotaxin-3 secretion at 10 uM after 24 hrs by ELISA
[17] = biological target: Signal transducer and activator of transcription 6 (Homo sapiens) (UniProt P42226); test: Inhibition of human STAT6 expressed in BEAS2B cells assessed as […]/TNFalpha-induced eotaxin-3 secretion in presence of TNFalpha at 10 uM after 24 hrs by ELISA

| inhibition [1] | inhibition [2] | Kd [3] | inhibition [4] | inhibition [5] | IC50 [6] | inhibition [8] | inhibition [10] | inhibition [11] | IC50 [12] | inhibition [13] | inhibition [14] | inhibition [15] | inhibition [16] | inhibition [17] | SMILES | Activity [7] | Activity [9] |
| --- | --- | --- | --- | --- | --- | --- | --- | --- | --- | --- | --- | --- | --- | --- | --- | --- | --- |
| inactive | inactive | 74000 nM | inactive | inactive | – | – | – | – | – | – | – | – | – | – | CN(CCc1ccccc1)C(=O)c1csc2c1CCC/C2=N/O | – | – |
| Active | inactive | 701 nM | Active | inactive | 3200 nM | Active | Active | inactive | – | – | – | – | – | – | CC(C)[C@@H](C)NC(=O)c1cc(-c2cc3ccccc3s2)cc(C(=O)NCCc2ccccn2)n1 | Non-toxic | Non-toxic |
| Active | inactive | 656 nM | Active | inactive | 2700 nM | Active | Active | inactive | 2740 nM | Active | Active | Active | Active | Active | CC(C)[C@@H](C)NC(=O)c1cc(-c2cc3ccccc3n2C)cc(C(=O)NCCc2ccccn2)n1 | Non-toxic | Non-toxic |
